# From ChEMBL document CHEMBL3132769, “Fragment growing to retain or alter the selectivity of anchored kinase hinge-binding fragments” (Medchemcomm, 2014)
# Experiments:
# [1] = target: T1, Serine/threonine-protein kinase D1 (Homo sapiens) (UniProt Q15139); experiment: Inhibition of human full length PKD1 expressed in baculovirus assessed as substrate phosphorylation using fluorescence-labelled peptides as substrate at 0.06 uM after 90 mins by microfluidic peptide phosphorylation assay
# T1 sequence (whole entry): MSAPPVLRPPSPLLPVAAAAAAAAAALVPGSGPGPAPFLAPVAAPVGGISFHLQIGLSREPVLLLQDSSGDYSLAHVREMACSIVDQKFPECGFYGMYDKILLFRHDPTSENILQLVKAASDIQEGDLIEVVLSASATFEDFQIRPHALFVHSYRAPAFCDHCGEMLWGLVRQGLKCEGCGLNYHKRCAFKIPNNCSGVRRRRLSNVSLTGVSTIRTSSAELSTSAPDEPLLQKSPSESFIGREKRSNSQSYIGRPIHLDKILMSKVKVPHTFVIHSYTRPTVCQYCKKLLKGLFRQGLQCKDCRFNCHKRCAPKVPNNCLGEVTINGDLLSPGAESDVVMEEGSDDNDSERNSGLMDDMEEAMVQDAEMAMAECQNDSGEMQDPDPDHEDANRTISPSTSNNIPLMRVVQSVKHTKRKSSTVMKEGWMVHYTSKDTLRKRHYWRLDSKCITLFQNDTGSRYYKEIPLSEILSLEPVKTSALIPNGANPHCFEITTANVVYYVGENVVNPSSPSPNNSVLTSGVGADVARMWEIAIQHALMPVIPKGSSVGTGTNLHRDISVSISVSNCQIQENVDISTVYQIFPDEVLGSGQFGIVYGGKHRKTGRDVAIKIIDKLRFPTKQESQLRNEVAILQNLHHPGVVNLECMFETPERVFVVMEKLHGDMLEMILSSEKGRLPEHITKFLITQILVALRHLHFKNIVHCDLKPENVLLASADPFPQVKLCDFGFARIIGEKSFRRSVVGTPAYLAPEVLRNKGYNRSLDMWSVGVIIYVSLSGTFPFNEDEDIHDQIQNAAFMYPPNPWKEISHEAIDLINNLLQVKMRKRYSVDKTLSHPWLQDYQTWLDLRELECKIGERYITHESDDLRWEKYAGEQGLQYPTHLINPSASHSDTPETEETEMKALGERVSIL
# [2] = system: T2, Receptor-type tyrosine-protein kinase FLT3 (Homo sapiens), P36888 [D835Y]; experiment: Inhibition of human FLT3 D835Y mutant catalytic domain expressed in baculovirus assessed as substrate phosphorylation using fluorescence-labelled peptides as substrate at 0.2 uM after 90 mins by microfluidic peptide phosphorylation assay
# T2 sequence (whole entry): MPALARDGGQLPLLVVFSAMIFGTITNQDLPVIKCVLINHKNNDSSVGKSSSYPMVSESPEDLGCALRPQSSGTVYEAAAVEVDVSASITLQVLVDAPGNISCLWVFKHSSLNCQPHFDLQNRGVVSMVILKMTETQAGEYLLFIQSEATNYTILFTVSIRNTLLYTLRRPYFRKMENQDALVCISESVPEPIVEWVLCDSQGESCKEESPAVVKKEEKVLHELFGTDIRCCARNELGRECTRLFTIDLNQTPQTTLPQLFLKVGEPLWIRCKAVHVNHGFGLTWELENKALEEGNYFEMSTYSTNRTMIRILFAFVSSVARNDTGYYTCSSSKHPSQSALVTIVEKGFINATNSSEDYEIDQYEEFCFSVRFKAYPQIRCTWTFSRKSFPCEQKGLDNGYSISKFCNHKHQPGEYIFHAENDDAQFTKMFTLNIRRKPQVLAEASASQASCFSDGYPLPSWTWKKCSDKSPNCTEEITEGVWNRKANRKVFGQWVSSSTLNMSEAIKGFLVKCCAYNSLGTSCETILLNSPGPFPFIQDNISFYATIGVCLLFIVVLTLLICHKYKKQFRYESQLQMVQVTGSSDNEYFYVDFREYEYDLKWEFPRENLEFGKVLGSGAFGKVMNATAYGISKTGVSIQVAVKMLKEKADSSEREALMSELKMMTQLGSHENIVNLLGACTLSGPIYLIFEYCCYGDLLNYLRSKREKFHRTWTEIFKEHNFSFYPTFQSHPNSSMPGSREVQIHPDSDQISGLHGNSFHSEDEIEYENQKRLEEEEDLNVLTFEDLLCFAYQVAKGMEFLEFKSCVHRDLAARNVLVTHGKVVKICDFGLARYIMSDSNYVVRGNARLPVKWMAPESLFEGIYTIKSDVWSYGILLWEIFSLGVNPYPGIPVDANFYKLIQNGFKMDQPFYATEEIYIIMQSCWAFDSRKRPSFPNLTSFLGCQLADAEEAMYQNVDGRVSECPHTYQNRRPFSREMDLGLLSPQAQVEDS
# [3] = target: Epidermal growth factor receptor (Homo sapiens) (UniProt P00533); experiment: Inhibition of human EGFR catalytic domain expressed in baculovirus assessed as substrate phosphorylation using fluorescence-labelled peptides as substrate at 0.2 uM after 90 mins by microfluidic peptide phosphorylation assay
# Chain of Epidermal growth factor receptor (Homo sapiens) (P00533 whole entry, the tested form may be a part): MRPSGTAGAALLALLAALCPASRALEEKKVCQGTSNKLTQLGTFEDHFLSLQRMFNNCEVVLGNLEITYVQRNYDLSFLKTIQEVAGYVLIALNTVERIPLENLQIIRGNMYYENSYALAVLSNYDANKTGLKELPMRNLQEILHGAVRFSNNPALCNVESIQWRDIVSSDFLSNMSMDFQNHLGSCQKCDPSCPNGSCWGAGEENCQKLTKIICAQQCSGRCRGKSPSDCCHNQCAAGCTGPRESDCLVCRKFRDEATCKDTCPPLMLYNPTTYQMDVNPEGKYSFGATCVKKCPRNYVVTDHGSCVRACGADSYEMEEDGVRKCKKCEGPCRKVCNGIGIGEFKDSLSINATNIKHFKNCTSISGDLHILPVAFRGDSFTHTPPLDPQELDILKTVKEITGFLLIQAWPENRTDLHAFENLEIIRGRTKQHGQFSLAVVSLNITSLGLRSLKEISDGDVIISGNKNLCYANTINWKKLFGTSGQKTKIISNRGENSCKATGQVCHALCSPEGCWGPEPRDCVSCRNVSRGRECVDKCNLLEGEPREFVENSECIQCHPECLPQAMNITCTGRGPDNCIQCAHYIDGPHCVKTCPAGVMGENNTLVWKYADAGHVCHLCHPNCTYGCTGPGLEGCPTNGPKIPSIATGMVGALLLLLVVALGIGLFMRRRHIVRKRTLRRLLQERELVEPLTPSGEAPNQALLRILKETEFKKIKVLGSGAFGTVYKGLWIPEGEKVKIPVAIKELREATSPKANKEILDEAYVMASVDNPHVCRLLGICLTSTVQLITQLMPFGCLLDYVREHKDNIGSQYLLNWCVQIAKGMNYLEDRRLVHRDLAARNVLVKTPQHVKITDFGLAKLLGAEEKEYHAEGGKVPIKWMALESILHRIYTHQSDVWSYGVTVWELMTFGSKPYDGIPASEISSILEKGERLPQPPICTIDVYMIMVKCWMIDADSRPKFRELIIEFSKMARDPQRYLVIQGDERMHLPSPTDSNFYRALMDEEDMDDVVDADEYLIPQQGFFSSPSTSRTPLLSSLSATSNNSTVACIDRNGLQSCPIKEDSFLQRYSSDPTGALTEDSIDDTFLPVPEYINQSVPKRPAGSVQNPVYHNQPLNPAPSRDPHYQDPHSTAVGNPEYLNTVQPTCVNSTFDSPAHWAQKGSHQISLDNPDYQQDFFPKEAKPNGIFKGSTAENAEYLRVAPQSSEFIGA
# [4] = target: Insulin receptor (Homo sapiens) (UniProt P06213); experiment: Inhibition of human INSR catalytic domain expressed in baculovirus assessed as substrate phosphorylation using fluorescence-labelled peptides as substrate at 0.2 uM after 90 mins by microfluidic peptide phosphorylation assay
# [5] = target: T3, Testis-specific serine/threonine-protein kinase 2 (Homo sapiens) (UniProt Q96PF2); experiment: Inhibition of human full length TSSK2 expressed in baculovirus assessed as substrate phosphorylation using fluorescence-labelled peptides as substrate at 95 uM after 90 mins by microfluidic peptide phosphorylation assay
# T3 sequence (whole entry): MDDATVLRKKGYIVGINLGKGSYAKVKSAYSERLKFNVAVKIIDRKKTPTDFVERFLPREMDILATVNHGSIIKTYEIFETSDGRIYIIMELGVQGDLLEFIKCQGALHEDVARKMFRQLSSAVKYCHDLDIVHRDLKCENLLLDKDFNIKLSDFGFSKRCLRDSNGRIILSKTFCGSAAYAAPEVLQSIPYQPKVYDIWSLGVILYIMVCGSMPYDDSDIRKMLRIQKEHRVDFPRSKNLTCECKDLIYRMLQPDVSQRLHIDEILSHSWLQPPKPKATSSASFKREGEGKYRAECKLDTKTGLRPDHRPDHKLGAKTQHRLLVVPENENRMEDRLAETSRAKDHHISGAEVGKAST
# [6] = target: Tyrosine-protein kinase Fyn (Homo sapiens) (UniProt P06241); experiment: Inhibition of human full length FYN expressed in baculovirus assessed as substrate phosphorylation using fluorescence-labelled peptides as substrate at 8 uM after 90 mins by microfluidic peptide phosphorylation assay
# Chain of Tyrosine-protein kinase Fyn (Homo sapiens) (P06241 2-537 limits assumed): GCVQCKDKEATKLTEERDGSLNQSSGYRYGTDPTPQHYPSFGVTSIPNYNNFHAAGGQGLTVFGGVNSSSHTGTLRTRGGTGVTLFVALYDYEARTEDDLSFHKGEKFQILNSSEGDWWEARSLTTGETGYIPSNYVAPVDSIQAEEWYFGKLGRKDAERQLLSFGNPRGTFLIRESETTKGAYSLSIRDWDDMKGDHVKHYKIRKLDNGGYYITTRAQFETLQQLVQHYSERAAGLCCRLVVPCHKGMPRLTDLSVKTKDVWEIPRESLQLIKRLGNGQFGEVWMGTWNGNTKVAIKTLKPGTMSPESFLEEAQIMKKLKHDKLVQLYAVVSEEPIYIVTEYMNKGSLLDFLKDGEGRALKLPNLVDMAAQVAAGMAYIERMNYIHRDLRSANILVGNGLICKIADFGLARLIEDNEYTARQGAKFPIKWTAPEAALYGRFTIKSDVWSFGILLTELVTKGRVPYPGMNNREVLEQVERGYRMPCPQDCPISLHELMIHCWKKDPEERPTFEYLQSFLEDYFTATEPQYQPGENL
# [7] = system: T2, Receptor-type tyrosine-protein kinase FLT3 (Homo sapiens), P36888 [D835Y]; experiment: Inhibition of human FLT3 D835Y mutant catalytic domain expressed in baculovirus assessed as substrate phosphorylation using fluorescence-labelled peptides as substrate at 8 uM after 90 mins by microfluidic peptide phosphorylation assay
# [8] = target: Platelet-derived growth factor receptor alpha (Homo sapiens) (UniProt P16234); experiment: Inhibition of human PDGFR alpha catalytic domain expressed in baculovirus assessed as substrate phosphorylation using fluorescence-labelled peptides as substrate at 1000 uM after 90 mins by microfluidic peptide phosphorylation assay
# Chain of Platelet-derived growth factor receptor alpha (Homo sapiens) (P16234 whole entry, the tested form may be a part): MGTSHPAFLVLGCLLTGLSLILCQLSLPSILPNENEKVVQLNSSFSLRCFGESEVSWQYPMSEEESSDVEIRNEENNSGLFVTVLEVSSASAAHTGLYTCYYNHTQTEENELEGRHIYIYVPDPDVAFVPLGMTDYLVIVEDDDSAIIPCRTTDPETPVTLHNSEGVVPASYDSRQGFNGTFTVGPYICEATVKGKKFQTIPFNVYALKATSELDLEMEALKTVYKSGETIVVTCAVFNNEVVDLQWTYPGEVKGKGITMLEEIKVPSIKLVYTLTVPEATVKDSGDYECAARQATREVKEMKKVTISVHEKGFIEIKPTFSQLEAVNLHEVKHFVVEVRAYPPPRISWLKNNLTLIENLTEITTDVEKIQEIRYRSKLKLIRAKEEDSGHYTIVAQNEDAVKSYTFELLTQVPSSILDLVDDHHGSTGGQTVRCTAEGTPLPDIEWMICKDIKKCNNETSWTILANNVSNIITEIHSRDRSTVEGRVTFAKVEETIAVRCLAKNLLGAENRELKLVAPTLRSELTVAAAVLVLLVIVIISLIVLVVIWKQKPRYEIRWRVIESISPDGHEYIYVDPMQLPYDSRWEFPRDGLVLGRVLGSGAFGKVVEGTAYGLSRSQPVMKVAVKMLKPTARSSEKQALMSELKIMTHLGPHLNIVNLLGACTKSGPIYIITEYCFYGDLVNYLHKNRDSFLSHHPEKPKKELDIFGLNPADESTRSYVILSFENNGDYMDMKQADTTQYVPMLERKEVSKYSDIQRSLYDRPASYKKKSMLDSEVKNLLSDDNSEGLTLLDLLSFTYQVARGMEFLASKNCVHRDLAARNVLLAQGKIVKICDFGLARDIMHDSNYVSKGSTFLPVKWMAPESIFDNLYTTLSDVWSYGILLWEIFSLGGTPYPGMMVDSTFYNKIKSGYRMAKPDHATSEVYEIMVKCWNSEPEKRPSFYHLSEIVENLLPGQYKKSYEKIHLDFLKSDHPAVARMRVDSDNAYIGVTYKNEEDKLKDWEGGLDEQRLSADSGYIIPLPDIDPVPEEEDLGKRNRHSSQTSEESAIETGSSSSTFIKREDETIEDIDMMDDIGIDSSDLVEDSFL
compound,measurement,setting,value
NC1(Cc2ccc(Cl)cc2)CCN(c2ncnc3[nH]ccc23)CC1,inhibition,[1],32.5%
Clc1ccc(C2(c3ccc(-c4ncnc5[nH]cnc45)cc3)CCNCC2)cc1,inhibition,[2],16%
same,inhibition,[3],2.5%
same,inhibition,[4],11%
NCCc1ccc(-c2ncnc3[nH]cnc23)cc1,inhibition,[5],23.5%
NCC1CCN(c2ncnc3[nH]ccc23)CC1,inhibition,[6],1%
same,inhibition,[7],4.5%
c1cnc2[nH]ccc2c1,inhibition,[8],31.5%
